Test results taken from patent US20120046321A1, “METHODS OF TREATING ATRIAL FIBRILLATION WITH P38 INHIBITOR COMPOUNDS” (INTERMUNE, INC., priority 2005, published 2012).
“Also recorded” adds a separate entry of the source.

What was measured:
Type in all cases: in vivo, canine
connexin 43 (Cx43) = test: Immunofluorescent distribution of gap junction protein in LA; settings: CHF and CHF+PFD groups
Experimental: (§1) The distribution of gap junction proteins connexin 43 (Cx43) and connexin 40 (Cx40) in atrial tissue was also studied. Atrial specimens were incubated with mouse monoclonal antibody against Cx40 and rabbit polyclonal antibody against Cx43 (Dako) overnight at 4° C. Subsequently, incubation with FITC-labeled goat anti-rabbit (for Cx43) and Texas Red-labeled donkey anti-mouse (for Cx40) antibodies (Jackson ImmunoResearch Laboratories, West Grove, Pa.) was performed. The specimens were processed and analyzed with fluorescent microscopy.

connexin 40 (Cx40) = test: as above; settings: CHF and CHF+PFD groups
Experimental: as §1

TGF-β1 = test: Western blot of atrial tissue; settings: CHF+PFD vs CHF
[1] = tested on: canines with ventricular tachypacing (VTP)-induced congestive heart failure (CHF); test: Echocardiographic monitoring of the VTP-induced CHF model (LV function, LA area, CHF signs); settings: oral PFD 800 mg three times a day
Source text: Briefly, 15 adult mongrel canines (weight 20 to 32 kgs) were divided into 3 groups (n=5 in each group) as follows: Group 1: Normal; Group 2: CHF canines not treated with PFD (or CHF); and Group 3: CHF canines treated with PFD (or CHF+PFD). […] The CHF and CHF+PFD canines underwent placement of a permanent single-chamber pacemaker with the pacing lead positioned in the right ventricular apex followed by radiofrequency catheter ablation of the AV junction to create complete heart block. Canines in the CHF and CHF+PFD groups underwent 3 weeks of VTP at a rate of 220 bpm. Oral PFD (800 mg three times a day) (InterMune, Brisbane, Calif.) was started 2 days prior to the initiation of VTP and was given for the full duration of the pacing period. The CHF and CHF+PFD groups underwent transesophageal echocardiography at the time of pacemaker implantation and at follow-up. Canines in the paced groups underwent weekly transthoracic echocardiography, weekly ECG monitoring to ensure right ventricular capture, and weekly physical examinations. CHF was established by clinical signs, such as, lethargy, peripheral edema, and mucous membrane color changes. Left atrial (LA) size was determined by measuring the LA area by planimetry from 2-D echocardiographic images during diastole from the 2-chamber views. Left ventricular (LV) systolic function was determined by measuring LV fractional shortening at the level of the papillary muscle. Two repeated measurements were made for LA area and LV fractional shortening and the mean value was used for analyses.

[2] = tested on: canines with heart failure produced by 4 weeks of rapid ventricular pacing; test: AF inducibility after PFD started once 4 weeks of rapid ventricular pacing ended (Example 7); settings: two canines, pacemakers turned off at 4 weeks, then PFD for 3 weeks
Experimental: AF inducibility was assessed by both the single-extrastimulus protocol (as above) and a burst pacing protocol which consisted of pacing at one LA site and one RA site. A total of 16 burst stimulations were carried out for each animal with each atrial site receiving 8 burst […] (4 for a duration of 6 seconds and 4 for 12 seconds) at a CL of 50 ms and a stimulus output of 0.5 V+twice diastolic threshold. AF was considered sustained if the induced episode lasted >[…] at which time the longest AF duration was taken as 3600 seconds and used for analysis. Two adult mongrel canines (weight 20 to 32 kgs) with heart failure produced by 4 weeks of rapid ventricular pacing as described above were evaluated for AF inducibility following PFD treatment. Briefly, pacemakers were turned off at 4 weeks and PFD started for 3 weeks. A follow-up study for AF inducibility after 3 weeks of PFD treatment was performed as described above.

SMILES: Cc1ccc(=O)n(-c2ccccc2)c1 [PFD, 5-methyl-1-phenyl-2-(1H)-pyridone]
- Spatial distribution of Cx43 in LA, treated vs untreated (connexin 43 (Cx43)): did not appear markedly different
- Spatial distribution of Cx40 in LA, treated vs untreated (connexin 40 (Cx40)): did not appear markedly different
- Expression of TGF-β1 (TGF-β1): downregulation; also recorded: reduced
- LV fractional shortening after 3 weeks of VTP compared with baseline ([1]; CHF+PFD group, p<0.001 vs baseline): −69±8%
- CHF signs, CHF vs CHF+PFD ([1]; 3 weeks VTP): did not appear to be different
- Increase in LA area from baseline at each weekly time point, CHF vs CHF+PFD ([1]; 3 weeks VTP): similar
- Inter-group baseline and weekly LV fractional shortening, CHF vs CHF+PFD ([1]; 3 weeks VTP): similar
- AF inducibility after 3 weeks of PFD treatment [2]: AF was not found
